The text below walks through data of PubChem BioAssay (NCI).

Test in all cases: NCI-60 cell line screen, 48 h
Assay [1] has as its system SK-MEL-2 melanoma.
In assay [2] the test system is RPMI-8226 leukemia.
Assay [3] relates to HCC-2998 colon.
The subject of assay [4] is PC-3 prostate.
Assay [5] concerns OVCAR-8 ovarian.
In assay [6] the test system is OVCAR-5 ovarian.
The subject of assay [7] is M14 melanoma.
Assay [8] has as its system SR leukemia.
Assay [9] has as its system SK-MEL-5 melanoma.
Assay [10] has as its system UO-31 renal.

Structures are written as SMILES.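 Tested at 5 concentrations; 48 h exposure; 96-well plates; endpoints linearly interpolated, else capped at highest concentration. Abbreviation: GI50, concentration required for 50% inhibition of growth. TGI denotes the concentration required for complete inhibition of growth.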

Turning to `O=C(/C=C/CN1CCCCC1)Nc1cc2c(Nc3ccc(F)c(Cl)c3F)ncnc2cc1OCCOC(F)F`, the GI50 in assay [1] was 1.85 µM; in [2], 1.01 µM; in assay [3] it was 1.6 µM; in [4] it was 1.68 µM; in assay [5], 0.805 µM; in assay [6], 0.406 µM. In addition, the GI50 in assay [7] was 2.12 µM; in assay [8], 0.598 µM; in assay [9], 1.54 µM; in assay [10] it was less than 0.0116 µM. Moreover, the TGI in [1] is 4.7 µM; in assay [2], 3.94 µM; in assay [3], 3.97 µM; in [4] it was 8.43 µM; in assay [5], 10.3 µM; in assay [6], 13.6 µM. Also, the TGI worked out at 6.61 µM in assay [7], 4.24 µM in [8], 3.07 µM in assay [9] and 5.89 µM in assay [10].
As to `COc1ccc(-c2nccn2-c2cc(OC)c(OC)c(OC)c2)cc1`, the GI50 is 36.1 µM in [1]; 8.06 µM in [2]; 1.09 µM in assay [3]; 1.81 µM in assay [4]; 12 µM in [5]; 10.8 µM in [6]. The GI50 was 6 µM in assay [7], greater than 100 µM in assay [8], 0.758 µM in [9] and 9.38 µM in [10]. Besides, the TGI in [1] is greater than 100 µM; in assay [2] it was greater than 93.2 µM; in [3], 39.9 µM; in assay [4], greater than 100 µM; in [5], greater than 100 µM; in [6], greater than 79.4 µM. Besides, the TGI is greater than 100 µM in assay [7], greater than 100 µM in [8], greater than 69.5 µM in assay [9] and greater than 93 µM in assay [10].
Consider `COc1ccc(/C=C2\CC(C)CC3C2=NN(C(C)=O)C3c2ccc(OC)c(OC)c2)cc1OC` (stereo not given), for which the GI50 in assay [1] was 15.4 µM; in assay [2], 8.19 µM; in assay [3] it was 12 µM; in assay [4], 13.8 µM; in assay [5], 23.5 µM; in assay [6], 17.5 µM. For the same compound, the GI50 in assay [7] was 15.1 µM; in assay [8] it was 22.9 µM; in assay [9], 12.7 µM; in assay [10] it was 13.3 µM. For the same compound, the TGI in assay [1] was 30 µM; in assay [2], 32 µM; in assay [3] it was 24.3 µM; in [4], greater than 100 µM; in [5], greater than 100 µM; in [6] it was 33.8 µM. Also, the TGI was determined as 28.7 µM in assay [7], 74.4 µM in [8], 27.4 µM in [9] and 29.6 µM in assay [10].
Regarding `Cc1cc(N2CCOCC2)nc(N(CCNc2ccnc3cc(Cl)ccc23)Cc2cccs2)n1`, the GI50 is 1.99 µM in assay [1]; 1.87 µM in [2]; 2.39 µM in assay [3]; 1.8 µM in assay [4]; 1.96 µM in [5]; 2.19 µM in assay [6]. Further, the GI50 is 1.79 µM in [7], 1.47 µM in assay [8], 1.59 µM in assay [9] and 1.39 µM in assay [10]. Also, the TGI was determined as 4.08 µM in [1]; 4.04 µM in [2]; 5.11 µM in assay [3]; 4.84 µM in assay [4]; 4.06 µM in assay [5]; 4.73 µM in assay [6]. For the same compound, the TGI in [7] worked out at 3.41 µM; in assay [8], 3.94 µM; in assay [9], 2.96 µM; in [10] it was 2.75 µM.
In the case of `CC1SC(c2cccc(Oc3ccccc3)c2)N(CCc2cccs2)C1=O` (stereo not given), the GI50 in assay [1] is 1.03 µM; in [2] it was 0.542 µM; in assay [3] it was 1.88 µM; in assay [4], 0.595 µM; in assay [5], 1.49 µM; in [6], 1.94 µM. Also, the GI50 in assay [7] was 1.02 µM; in assay [8], 0.585 µM; in [9], 0.607 µM; in [10] it was 0.469 µM. For the same compound, the TGI worked out at 2.31 µM in assay [1]; 2.94 µM in [2]; 5.75 µM in assay [3]; 3.37 µM in assay [4]; 5.06 µM in assay [5]; 5.89 µM in [6]. The TGI in assay [7] is 2.34 µM; in assay [8], 4.19 µM; in [9], 1.87 µM; in assay [10] it was 1.9 µM.
`COc1cc(C2C3=C(COC3=O)N(CCO)c3cc4c(cc32)CCC4)cc(OC)c1OC` (stereo not given): the GI50 in [1] is 0.146 µM; in assay [2], 0.135 µM; in [3], 0.0693 µM; in [4], 0.112 µM; in [5], 0.118 µM; in assay [6], 0.164 µM. Also, the GI50 is 0.0672 µM in assay [7], 0.0692 µM in [8], 0.0956 µM in assay [9] and 0.228 µM in assay [10]. In addition, the TGI was greater than 9.09 µM in assay [1]; greater than 12.2 µM in assay [2]; 0.164 µM in [3]; greater than 32.5 µM in assay [4]; greater than 32.5 µM in [5]; greater than 32.5 µM in [6]. The TGI in [7] was 0.199 µM; in assay [8], greater than 32.5 µM; in [9] it was 0.451 µM; in [10], greater than 17 µM.
For the compound `COc1cc2c(cc1Nc1nc(Nc3ccsc3C(N)=O)c3cc[nH]c3n1)N(C(=O)CN(C)C)CCC2`, the GI50 is 0.726 µM in assay [1]; 1.24 µM in assay [2]; 0.2 µM in assay [3]; 1.17 µM in assay [4]; 0.842 µM in assay [5]; 0.109 µM in [6]. Moreover, the GI50 in assay [7] is 0.592 µM; in assay [8] it was 0.0123 µM; in assay [9], 0.383 µM; in assay [10] it was 3.35 µM. Moreover, the TGI in [1] is 4.58 µM; in [2] it was 6.56 µM; in assay [3], 2.27 µM; in assay [4], greater than 23.6 µM; in assay [5], greater than 11.2 µM; in [6] it was 3.66 µM. Besides, the TGI in assay [7] is 3.28 µM; in [8], 3.44 µM; in [9], 3.2 µM; in [10], 7.39 µM.
